Laboratory results reported in patent US12521393B2, “Cytotoxicity targeting chimeras for CCR2-expressing cells” (GLAXOSMITHKLINE INTELLECTUAL PROPERTY DEVELOPMENT LIMITED, priority 2021, dated 2026).

Columns and labels:
[1] = target: T1, CHOK1 cells engineered to overexpress human CCR2 (Homo sapiens, UniProt P41597); assay: Antibody dependent cellular cytotoxicity (ADCC) reporter assay (Example 199); assay type: cell-based; conditions: with anti-cotinine antibody (SEQ ID NO: 11/12), Jurkat FcγRIIIa NFAT-luciferase reporter cells, 12-18 hours, EC50 in molar, average or individual runs
T1 construct: expressed in transfected cells; host or cells: CHOK1
Procedure: An antibody dependent cellular cytoxocity reporter assay was conducted using the following four assay components: (i) ARM compound of Formula (I) targeting CCR2 (concentrations ranging from […] to 10 μM) (ii) anti-cotinine antibody having a heavy chain sequence of SEQ ID NO: 11 and a light chain sequence of SEQ ID NO: 12 (rabbit variable region with human IgG1 Fc domain containing a DE mutation (S239D/1332E)) (concentrations ranging from 0.01 μg/mL to 200 μg/mL); (iii) target cells: CHOK1 cells engineered to overexpress either human CCR2 (typically 1000-20,000 cells per well) and (iv) reporter cells: Jurkat cells engineered to express FcγRIIIa with the reporter gene luciferase under the control of the NFAT promoter (typically 3000-75,000 cells per well). Reagents were combined in a final volume of 20 μL in a 384-well tissue culture treated plate. All four assay components were incubated together for about 12-18 hours. Thereafter, BioGlo Detection reagent (Promega) was added to the wells to lyse the cells and provide a substrate for the luciferase reporter protein. Luminescence signal was measured on a microplate reader and signal: background was calculated by dividing the signal of a test well by the signal obtained when no heterobivalent compound of Formula (I) was added. EC50 calculations were done using Graphpad Prism Software, specifically a nonlinear regression curve fit (Y=Bottom+(Top−Bottom)/(1+10A((LogEC50−X)*HillSlope))).
ARMs compounds of Formula (I) of the invention were tested for ADCC activity in the above assay in or more experimental runs and the results are shown in Table 3 below. Potency of the compounds of Formula (I) of the invention is reported as a pEC50 value. The pEC50 value is the negative log of the EC50 value, wherein the EC50 value is the half maximal effective concentration measured in molar (M). For compounds tested in more than one experimental run, the pEC50 value is reported as an average.

[2] = system: endogenous target monocytes in human PBMC; assay: PBMC ex vivo monocyte depletion flow cytometry assay (Example 200); assay type: cell-based; conditions: with anti-cotinine antibody (SEQ ID NO: 11/12), 18-24 hours, EC50 in molar, read-out: Ex Vivo Depletion Assay pEC50 (converted)
Outline: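 Monocyte depletion is reported as pEC50, averaged or given individually across runs, and read by flow cytometry staining CD45, CD14 and CD4 with a viability dye. Compounds, diluted four-fold over 11 points from 1 mM DMSO stocks, were combined with 30 μg/mL Fc-enhanced anti-cotinine antibody and human PBMC, then incubated 18-24 h at 37° C.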

[3] = system: CCR2 expressing cells (CD11b+Ly6c+Hi) in peripheral blood; assay: In vivo depletion assay, flow cytometry of peripheral blood (Example 201); set-up: species or system human CCR2 knock-in mice (C57 background); conditions: hCCR2 knock-in mice, IV 0.1 mpk compound + 10 mpk anti-cotinine antibody (SEQ ID NO: 13/14), peripheral blood at 48 hr
Outline: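 Flow cytometry of blood collected at study termination quantified percent depletion of CD11b+Ly6c+Hi cells and CCR2 expression, using surface markers CD45, CD3, CD11b, Ly6C, human CCR2 after Fc block, with 7AAD viability stain. Compound given in saline:DMSO:PBS formulation, optionally combined with anti-cotinine antibody, incubated 30 min before administration.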

[4] = target: anti-cotinine antibody (SEQ ID NO: 11/12, rabbit variable region with human IgG1 Fc DE mutation); assay: SPR binding of anti-cotinine antibody to ARM compounds, Biacore T200, 37° C. (Example 202); conditions: SPR Biacore T200, 37° C., pH 7.4, antibody SEQ ID NO: 11/12 captured on protein A; Kd in molar
Outline: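 Run at 37 °C in 10 mM HEPES pH 7.4, 150 mM NaCl, 0.005% P20, 1% DMSO, with compounds titrated from 200 nM (five 3-fold steps) over protein A–captured antibody. A 1:1 kinetic model on double-referenced data gave rate constants, Kd as koff/kon and residence time 1/koff; results as pKd, run-averaged.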

Row | SMILES | EC50 ([1]; read-out: ADCC Reporter Assay pEC50 (converted)) | EC50 [2] | ADCC Reporter Assay pEC50 [1] | % Depletion of CCR2 expressing cells [3] | pKd of Antibody for ARM Compound of Formula (I) [4]
1 | CC(C)N(C)[C@@H]1CC[C@H](N2CC[C@H](Nc3ncnc4ccc(C(F)(F)F)cc34)C2=O)[C@H](NC(=O)C2CCC(N3CCC(S(=O)(=O)NCCCCCCNC(=O)[C@H]4CC(=O)N(C)[C@@H]4c4cccnc4)CC3)CC2)C1 (single isomer, unassigned) [Example 149] | 0.251 nM | 0.251 nM |  |  | 
2 | CC(C)N(C)[C@@H]1CC[C@H](N2CC[C@H](Nc3ncnc4ccc(C(F)(F)F)cc34)C2=O)[C@H](NC(=O)CCOCCOCCOCCOCCOCCOCCOCCOCCOCCOCCOCCOCCOCCOCCOCCOCCOCCOCCOCCOCCOCCOCCOCCNC(=O)C2CC(=O)N(C)C2c2cccnc2)C1 (stereo in doubt) [Example 43, (2R,3R)-N-(72-(((1R,2S,5R)-5-(isopropyl(methyl)amino)-2-((S)-2-oxo-3-((6-(trifluoromethyl)quinazolin-4-yl)amino)pyrrolidin-1-yl)cyclohexyl)amino)-72-oxo-3,6,9,12,15,18,21,24,27,30,33,36,39,42,45,48,51,54,57,60,63,66,69-tricosaoxadoheptacontyl)-1-methyl-5-oxo-2-(pyridin-3-yl)pyrrolidine-3-carboxamide] |  |  | 8.8 |  | 
3 | CC(C)N(C)[C@@H]1CC[C@H](N2CC[C@H](Nc3ncnc4ccc(C(F)(F)F)cc34)C2=O)[C@H](NC(=O)CCNC2CCC3(CC2)CCN(CCCNC(=O)[C@H]2CC(=O)N(C)[C@@H]2c2cccnc2)CC3)C1 [Example 138, (2S,3S)-N-(3-(9-((3-(((1R,2S,5R)-5-(Isopropyl(methyl)amino)-2-((S)-2-oxo-3-((6-(trifluoromethyl)quinazolin-4-yl)amino)pyrrolidin-1-yl)cyclohexyl)amino)-3-oxopropyl)amino)-3-azaspiro[5.5]undecan-3-yl)propyl)-1-methyl-5-oxo-2-(pyridin-3-yl)pyrrolidine-3-carboxamide] |  | 0.158 nM |  | 74.67% | 9.0865
4 | CC(C)N(C)[C@@H]1CC[C@H](N2CC[C@H](Nc3ncnc4ccc(C(F)(F)F)cc34)C2=O)[C@H](NC(=O)[C@H]2CC[C@@H](NC(=O)COCCNC(=O)CCOCCNC(=O)[C@H]3CC(=O)N(C)[C@@H]3c3cccnc3)CC2)C1 [Example 152, (2S,3S)-N-(2-(3-((2-(2-(((1S,4s)-4-(((1R,2S,5R)-5-(Isopropyl(methyl)amino)-2-((S)-2-oxo-3-((6-(trifluoromethyl)quinazolin-4-yl)amino)pyrrolidin-1-yl)cyclohexyl)carbamoyl)cyclohexyl)amino)-2-oxoethoxy)ethyl)amino)-3-oxopropoxy)ethyl)-1-methyl-5-oxo-2-(pyridin-3-yl)pyrrolidine-3-carboxamide] |  | 1.26 nM |  | 82% | 9.111
5 | CC(C)N(C)[C@@H]1CC[C@H](N2CC[C@H](Nc3ncnc4ccc(C(F)(F)F)cc34)C2=O)[C@H](NC(=O)C2CCN(C3CCN(C(=O)CCCCCCCCCNC(=O)[C@@H]4CC(=O)N(C)[C@H]4c4cccnc4)CC3)CC2)C1 [Example 157, N-((1R,2S,5R)-5-(Isopropyl(methyl)amino)-2-((S)-2-oxo-3-((6-(trifluoromethyl)quinazolin-4-yl)amino)pyrrolidin-1-yl)cyclohexyl)-1′-(10-((2R,3R)-1-methyl-5-oxo-2-(pyridin-3-yl)pyrrolidine-3-carboxamido)decanoyl)-[1,4′-bipiperidine]-4-carboxamide] |  | 0.631 nM |  | 79% | 10.135
6 | CC(C)N(C)[C@@H]1CC[C@H](N2CC[C@H](Nc3ncnc4ccc(C(F)(F)F)cc34)C2=O)[C@H](NC(=O)CCOCCNC(=O)COCCNC(=O)CCOCCNC(=O)[C@H]2CC(=O)N(C)[C@@H]2c2cccnc2)C1 [Example 163, (2S,3S)-N-(19-(((1R,2S,5R)-5-(Isopropyl(methyl)amino)-2-((S)-2-oxo-3-((6-(trifluoromethyl)quinazolin-4-yl)amino)pyrrolidin-1-yl)cyclohexyl)amino)-6,12,19-trioxo-3,10,16-trioxa-7,13-diazanonadecyl)-1-methyl-5-oxo-2-(pyridin-3-yl)pyrrolidine-3-carboxamide] |  | 0.871 nM |  | 89% | 9.07
7 | CC(C)N(C)[C@@H]1CC[C@H](N2CC[C@H](Nc3ncnc4ccc(C(F)(F)F)cc34)C2=O)[C@H](NC(=O)CCCNc2c(NCCOCCOCCOCCOCCNC(=O)[C@H]3CC(=O)N(C)[C@@H]3c3cccnc3)c(=O)c2=O)C1 [Example 164, (2S,3S)-N-(14-((2-((4-(((1R,2S,5R)-5-(Isopropyl(methyl)amino)-2-((S)-2-oxo-3-((6-(trifluoromethyl)quinazolin-4-yl)amino)pyrrolidin-1-yl)cyclohexyl)amino)-4-oxobutyl)amino)-3,4-dioxocyclobut-1-en-1-yl)amino)-3,6,9,12-tetraoxatetradecyl)-1-methyl-5-oxo-2-(pyridin-3-yl)pyrrolidine-3-carboxamide] |  | 1 nM |  | 86% | 9.3225
8 | CC(C)N(C)[C@@H]1CC[C@H](N2CC[C@H](Nc3ncnc4ccc(C(F)(F)F)cc34)C2=O)[C@H](NC(=O)CCOCCOCCOCCNc2c(NCCCNC(=O)[C@H]3CC(=O)N(C)[C@@H]3c3cccnc3)c(=O)c2=O)C1 [Example 169, (2S,3S)-N-(3-((2-((2-(2-(2-(3-(((1R,2S,5R)-5-(Isopropyl(methyl)amino)-2-((S)-2-oxo-3-((6-(trifluoromethyl)quinazolin-4-yl)amino)pyrrolidin-1-yl)cyclohexyl)amino)-3-oxopropoxy)ethoxy)ethoxy)ethyl)amino)-3,4-dioxocyclobut-1-en-1-yl)amino)propyl)-1-methyl-5-oxo-2-(pyridin-3-yl)pyrrolidine-3-carboxamide] |  | 0.251 nM |  | 87% | 9.0085
9 | CC(C)N(C)[C@@H]1CC[C@H](N2CC[C@H](Nc3ncnc4ccc(C(F)(F)F)cc34)C2=O)[C@H](NC(=O)CCCC(=O)NCCCOCCCNC(=O)CCCNC(=O)[C@H]2CC(=O)N(C)[C@@H]2c2cccnc2)C1 [Example 173, N^1-((1R,2S,5R)-5-(Isopropyl(methyl)amino)-2-((S)-2-oxo-3-((6-(trifluoromethyl)quinazolin-4-yl)amino)pyrrolidin-1-yl)cyclohexyl)-N5-(3-(3-(4-((2S,3S)-1-methyl-5-oxo-2-(pyridin-3-yl)pyrrolidine-3-carboxamido)butanamido)propoxy)propyl)glutaramide] |  | 0.794 nM |  | 91% | 9.1415
10 | CC(C)N(C)[C@@H]1CC[C@H](N2CC[C@H](Nc3ncnc4ccc(C(F)(F)F)cc34)C2=O)[C@H](NC(=O)CCCC(=O)N[C@H]2CC[C@@H](CNC(=O)CCOCCNC(=O)[C@H]3CC(=O)N(C)[C@@H]3c3cccnc3)CC2)C1 [Example 179, N^1-((1R,2S,5R)-5-(isopropyl(methyl)amino)-2-((S)-2-oxo-3-((6-(trifluoromethyl)quinazolin-4-yl)amino)pyrrolidin-1-yl)cyclohexyl)-N^5-((1R,4S)-4-((3-(2-((2S,3S)-1-methyl-5-oxo-2-(pyridin-3-yl)pyrrolidine-3-carboxamido)ethoxy)propanamido)methyl)cyclohexyl)glutaramide] |  | 0.631 nM |  | 89.5% | 9.24
